ChEMBL document CHEMBL1201862, “PubChem BioAssay data set” (2004)
The source made the active and inactive calls.

Assays:
[1] = target: Tyrosine-protein phosphatase non-receptor type 5 (Homo sapiens, UniProt P54829); test: STEP phosphatase inhibitors, confirmation, biochemical, fluorescence intensity, uHTS hits (AID 602372); assay type: functional; settings: read-out: IC50_Mean
[2] = target: DNA (cytosine-5)-methyltransferase 1 (Homo sapiens, UniProt P26358); test: DNMT1 methyltransferase inhibitors, confirmation, biochemical, fluorescent molecular beacon (AID 602386); assay type: functional
Sequence of DNA (cytosine-5)-methyltransferase 1 (P26358 whole entry): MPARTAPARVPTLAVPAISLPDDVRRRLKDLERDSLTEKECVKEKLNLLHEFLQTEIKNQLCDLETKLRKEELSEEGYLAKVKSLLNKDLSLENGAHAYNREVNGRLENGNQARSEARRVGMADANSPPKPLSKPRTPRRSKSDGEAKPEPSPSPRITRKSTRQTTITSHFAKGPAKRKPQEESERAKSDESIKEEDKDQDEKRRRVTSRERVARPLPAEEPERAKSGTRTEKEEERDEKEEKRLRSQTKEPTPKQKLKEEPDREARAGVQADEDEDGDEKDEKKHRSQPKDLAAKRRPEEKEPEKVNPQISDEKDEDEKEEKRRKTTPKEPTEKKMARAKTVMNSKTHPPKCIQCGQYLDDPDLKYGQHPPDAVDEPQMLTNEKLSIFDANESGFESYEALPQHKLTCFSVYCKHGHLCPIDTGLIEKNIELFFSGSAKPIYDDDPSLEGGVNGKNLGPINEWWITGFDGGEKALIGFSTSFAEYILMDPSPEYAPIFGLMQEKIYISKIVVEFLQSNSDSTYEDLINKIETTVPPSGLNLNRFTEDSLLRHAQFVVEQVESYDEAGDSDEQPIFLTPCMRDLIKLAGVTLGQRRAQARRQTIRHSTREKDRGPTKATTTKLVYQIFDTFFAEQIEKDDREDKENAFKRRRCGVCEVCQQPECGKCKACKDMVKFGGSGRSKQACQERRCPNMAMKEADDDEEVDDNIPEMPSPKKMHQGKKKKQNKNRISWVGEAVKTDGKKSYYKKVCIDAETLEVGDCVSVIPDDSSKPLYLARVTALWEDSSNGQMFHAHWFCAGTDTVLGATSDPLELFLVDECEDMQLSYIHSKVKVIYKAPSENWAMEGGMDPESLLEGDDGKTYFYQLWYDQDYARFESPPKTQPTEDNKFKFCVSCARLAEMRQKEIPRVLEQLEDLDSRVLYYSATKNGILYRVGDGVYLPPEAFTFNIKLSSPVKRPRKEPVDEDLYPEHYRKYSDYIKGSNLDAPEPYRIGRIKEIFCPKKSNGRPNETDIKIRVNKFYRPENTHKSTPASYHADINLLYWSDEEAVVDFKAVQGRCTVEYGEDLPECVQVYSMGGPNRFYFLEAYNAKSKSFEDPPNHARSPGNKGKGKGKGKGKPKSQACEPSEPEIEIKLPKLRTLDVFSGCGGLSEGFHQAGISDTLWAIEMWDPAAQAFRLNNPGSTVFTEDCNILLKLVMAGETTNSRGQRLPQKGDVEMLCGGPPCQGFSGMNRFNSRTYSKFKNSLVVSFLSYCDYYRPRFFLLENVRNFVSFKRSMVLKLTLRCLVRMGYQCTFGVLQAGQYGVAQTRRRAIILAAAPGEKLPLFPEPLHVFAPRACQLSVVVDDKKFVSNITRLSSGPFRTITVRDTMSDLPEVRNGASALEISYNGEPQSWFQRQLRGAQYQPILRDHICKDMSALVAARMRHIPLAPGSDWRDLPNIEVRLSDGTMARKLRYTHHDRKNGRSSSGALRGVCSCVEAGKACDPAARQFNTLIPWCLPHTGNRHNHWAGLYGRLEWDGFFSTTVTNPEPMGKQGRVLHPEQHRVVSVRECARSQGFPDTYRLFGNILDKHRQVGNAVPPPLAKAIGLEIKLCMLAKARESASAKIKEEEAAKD

[3] = target: Dual specificity protein phosphatase 3 (Homo sapiens, UniProt P51452); test: VHR phosphatase inhibition, dose response, selectivity assay for STEP inhibitor project, biochemical (AID 602374); assay type: functional; settings: read-out: IC50_Mean
Sequence of Dual specificity protein phosphatase 3 (P51452 whole entry): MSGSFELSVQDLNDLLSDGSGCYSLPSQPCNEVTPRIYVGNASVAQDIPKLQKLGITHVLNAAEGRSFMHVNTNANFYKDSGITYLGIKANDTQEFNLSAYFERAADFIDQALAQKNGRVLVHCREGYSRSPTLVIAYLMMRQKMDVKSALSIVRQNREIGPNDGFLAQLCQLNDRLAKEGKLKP

Albumin = Albumin (Bos taurus, UniProt P02769); test: Counterscreen for inhibitors of T-cell receptor (TCR)-CD3 interaction: Fluorescence-based biochemical high throughput dose response assay to identify inhibitors of T-cell receptor (TCR)-CD3 interaction using a TAMRA-labeled BSA probe.; assay type: functional
Sequence of Albumin (P02769 whole entry): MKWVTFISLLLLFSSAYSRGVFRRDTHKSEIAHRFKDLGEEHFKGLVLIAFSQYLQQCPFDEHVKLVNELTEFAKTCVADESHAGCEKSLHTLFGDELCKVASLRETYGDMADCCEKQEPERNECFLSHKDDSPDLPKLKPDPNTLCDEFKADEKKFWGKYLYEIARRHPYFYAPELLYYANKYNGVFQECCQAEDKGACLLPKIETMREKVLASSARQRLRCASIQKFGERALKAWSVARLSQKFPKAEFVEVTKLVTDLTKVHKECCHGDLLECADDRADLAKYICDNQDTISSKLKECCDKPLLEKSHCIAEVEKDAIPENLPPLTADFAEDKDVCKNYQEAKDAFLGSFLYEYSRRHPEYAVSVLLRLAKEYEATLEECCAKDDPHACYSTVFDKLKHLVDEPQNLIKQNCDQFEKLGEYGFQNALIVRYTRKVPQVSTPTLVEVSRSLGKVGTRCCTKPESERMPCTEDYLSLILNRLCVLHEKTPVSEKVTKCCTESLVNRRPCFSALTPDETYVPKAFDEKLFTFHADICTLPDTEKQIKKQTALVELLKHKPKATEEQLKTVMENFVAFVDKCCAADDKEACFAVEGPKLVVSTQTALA

[4] = target: Tyrosine-protein phosphatase non-receptor type 11 (Homo sapiens, UniProt Q06124); test: SHP2 phosphatase inhibition, dose response, selectivity assay for STEP inhibitor project, biochemical (AID 602367); assay type: functional; settings: read-out: IC50_Mean
Sequence of Tyrosine-protein phosphatase non-receptor type 11 (Q06124 whole entry): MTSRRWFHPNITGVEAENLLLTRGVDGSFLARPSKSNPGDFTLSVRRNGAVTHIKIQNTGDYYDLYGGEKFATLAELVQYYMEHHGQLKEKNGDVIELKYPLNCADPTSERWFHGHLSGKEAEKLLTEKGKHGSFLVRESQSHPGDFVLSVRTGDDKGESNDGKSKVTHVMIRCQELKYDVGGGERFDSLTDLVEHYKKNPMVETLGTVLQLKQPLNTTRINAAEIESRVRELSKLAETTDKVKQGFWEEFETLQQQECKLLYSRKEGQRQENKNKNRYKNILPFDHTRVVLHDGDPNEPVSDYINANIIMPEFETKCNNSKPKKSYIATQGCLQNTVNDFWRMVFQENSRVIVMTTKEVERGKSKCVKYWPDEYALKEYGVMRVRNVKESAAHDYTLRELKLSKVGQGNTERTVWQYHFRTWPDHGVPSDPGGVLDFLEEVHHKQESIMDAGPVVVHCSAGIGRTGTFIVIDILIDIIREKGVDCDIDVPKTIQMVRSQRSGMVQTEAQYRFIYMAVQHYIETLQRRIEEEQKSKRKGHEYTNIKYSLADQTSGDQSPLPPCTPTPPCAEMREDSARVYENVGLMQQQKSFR

[5] = target: T1, Small ubiquitin-related modifier 1 (Homo sapiens, UniProt P63165); test: inhibitors of SUMO1 peptide binding, dose response, biochemical, fluorescence polarization, uHTS hits (AID 624382); assay type: functional; settings: read-out: IC50_Mean
T1 sequence (P63165 whole entry): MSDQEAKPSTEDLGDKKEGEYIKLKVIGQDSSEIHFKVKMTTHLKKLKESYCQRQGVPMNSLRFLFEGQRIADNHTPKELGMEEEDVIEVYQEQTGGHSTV

[6] = target: T1, Small ubiquitin-related modifier 1; test: inhibitors of SUMO1 partner interactions, dose response, biochemical, FRET (AID 624383); assay type: functional; settings: read-out: IC50_Mean
[7] = miR-122 activators in hepatoma reporter cells, dose response, cell-based, Huh7 psiCHECK-miR122, Renilla luciferase, cherry-picked (AID 651956); assay type: functional;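 note: huh7 hepatoma cells stably carrying a psiCHECK-2 miR-122 sensor plasmid; renilla luciferase signal reporting endogenous miR-122 activity after 48 h compound exposure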
[8] = inhibitors of TNFa-stimulated NF-kB luciferase reporter, dose response, selectivity assay for EBV LMP1 NF-kB inhibitor project, HEK293 LMP1 reporter cells, dry powder, set 2 (AID 624369); assay type: functional
Caspase-7 = Caspase-7 (Homo sapiens, UniProt P55210); test: human caspase-7 inhibitors, dose response, selectivity assay for caspase-6 inhibitor project, biochemical, DEVD-R110 fluorescence, cherry-pick (AID 743295)
Sequence of Caspase-7 (P55210 24-198 limits assumed): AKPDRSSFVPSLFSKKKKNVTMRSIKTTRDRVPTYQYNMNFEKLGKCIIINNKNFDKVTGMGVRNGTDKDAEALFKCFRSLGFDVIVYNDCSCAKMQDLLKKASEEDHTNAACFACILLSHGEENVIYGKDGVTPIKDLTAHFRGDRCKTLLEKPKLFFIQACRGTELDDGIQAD
Sequence of Caspase-7 (P55210 207-303 limits assumed): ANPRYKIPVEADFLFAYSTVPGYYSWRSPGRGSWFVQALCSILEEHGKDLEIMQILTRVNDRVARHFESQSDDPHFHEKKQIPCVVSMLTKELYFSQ

Caspase-6 = target: T2, Caspase-6 (Homo sapiens, UniProt P55212); test: human caspase-6 inhibitors, dose response, biochemical, VEID-R110 fluorescence, cherry-pick (AID 720632)
T2 sequence (P55212 whole entry): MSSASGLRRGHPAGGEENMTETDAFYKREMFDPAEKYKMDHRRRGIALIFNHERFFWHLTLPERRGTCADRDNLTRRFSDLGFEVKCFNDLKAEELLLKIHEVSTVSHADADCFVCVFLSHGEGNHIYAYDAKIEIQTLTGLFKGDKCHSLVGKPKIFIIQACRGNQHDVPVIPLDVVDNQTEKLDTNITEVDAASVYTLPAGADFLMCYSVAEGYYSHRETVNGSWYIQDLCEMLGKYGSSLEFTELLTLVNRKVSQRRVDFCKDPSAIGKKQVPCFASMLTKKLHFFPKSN

[9] = target: Low molecular weight phosphotyrosine protein phosphatase (Homo sapiens, UniProt P24666); assay type: functional; settings: read-out: IC50_Mean;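 note: Dose-response confirmation assay measuring inhibition of LMPTP enzyme activity by fluorescence intensity read-out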
Sequence of Low molecular weight phosphotyrosine protein phosphatase (P24666 whole entry): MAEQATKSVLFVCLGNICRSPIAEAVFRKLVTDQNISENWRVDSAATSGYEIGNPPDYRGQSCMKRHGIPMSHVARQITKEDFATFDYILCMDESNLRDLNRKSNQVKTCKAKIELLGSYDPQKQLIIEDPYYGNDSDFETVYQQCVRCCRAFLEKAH

A549 = test: A549 cell toxicity, dose response, cytotoxicity control, plate reader, cherry-pick samples (AID 687028); assay type: functional, cell-based; settings: Homo sapiens
[10] = NIH3T3 fibroblast cytotoxicity, dose response, cytotoxicity control for PglD inhibitor project, cell-based, CellTiter-Glo luminescence, dry powder (AID 652044); assay type: functional
[11] = lymphoblastoid cell cytotoxicity, dose response, cytotoxicity control, plate reader, dry powder, set 2 (AID 624367); assay type: functional
[12] = Cytotoxicity screening for potential Inhibitors of Bacterial Capsule Biogenesis (4).; assay type: functional
HeLa = test: HeLa cell cytotoxicity, dose response, cytotoxicity control, ATP luminescence, cherry-pick samples (AID 687004); assay type: functional, cell-based; settings: Homo sapiens
[13] = inhibitors of intracellular T. cruzi replication, confirmation, NIH3T3 host cells, beta-gal luminescence (AID 2044); assay type: functional, cell-based;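 note: intracellular parasites grown in NIH/3T3 mouse fibroblasts as host cells; luminescent beta-galactosidase reporter signal from transgenic T. cruzi replicating inside host cells; inhibitors lower the luminescence signal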
Cryptococcus neoformans [14] = test: Cryptococcus growth inhibition by alamar blue – cell lysis, cherry-picks, replicate tests, mechanism study for C. neoformans antifungal project, dose response (AID 686999); assay type: functional, organism-based
[15] = cytotoxicity toward NIH3T3 fibroblasts, dose response, counter-screen, cell-based, ATP luminescence, mouse fibroblasts (AID 2010); assay type: functional;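 note: cells exposed to compound for about 90 hours before reading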
[16] = NIH-3T3 fibroblast cytotoxicity, dose response, cytotoxicity control, cell-based, fluorescence, Alamar Blue, secondary assay (AID 2327); assay type: functional;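 note: NIH-3T3 mouse fibroblasts cultured with fluconazole at 8 µg/mL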
[17] = C. albicans growth with fluconazole, confirmation, fluorescence, retest (AID 2467); assay type: functional, cell-based
Cryptococcus neoformans [18] = test: PubChem AID 686997; assay type: functional, organism-based
[19] = target: T3, Probable nicotinate-nucleotide adenylyltransferase (Staphylococcus aureus (strain N315), UniProt P65502); assay type: functional, Staphylococcus aureus subsp. aureus N315; settings: read-out: IC50_Mean;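 for IC50 Mean: confirmatory dose-response retesting of NadD inhibitor hits first found in an ultra-high-throughput screen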
T3 sequence (P65502 whole entry): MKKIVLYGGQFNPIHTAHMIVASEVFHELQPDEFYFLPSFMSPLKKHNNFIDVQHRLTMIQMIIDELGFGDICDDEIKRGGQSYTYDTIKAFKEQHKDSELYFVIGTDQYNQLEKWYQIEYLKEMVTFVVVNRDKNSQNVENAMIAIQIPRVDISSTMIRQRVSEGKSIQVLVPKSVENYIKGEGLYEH

[20] = target: T3, Probable nicotinate-nucleotide adenylyltransferase; assay type: functional, Staphylococcus aureus subsp. aureus N315
cells = assay type: functional, cell-based
Leucine aminopeptidase = target: T4, Leucine aminopeptidase (Plasmodium falciparum 3D7, UniProt Q8IL11); test: P. falciparum M17LAP inhibitors, primary screen, biochemical, fluorogenic H-Leu-NHMec substrate, 1536-well (AID 1619); assay type: functional
T4 sequence (Q8IL11 whole entry): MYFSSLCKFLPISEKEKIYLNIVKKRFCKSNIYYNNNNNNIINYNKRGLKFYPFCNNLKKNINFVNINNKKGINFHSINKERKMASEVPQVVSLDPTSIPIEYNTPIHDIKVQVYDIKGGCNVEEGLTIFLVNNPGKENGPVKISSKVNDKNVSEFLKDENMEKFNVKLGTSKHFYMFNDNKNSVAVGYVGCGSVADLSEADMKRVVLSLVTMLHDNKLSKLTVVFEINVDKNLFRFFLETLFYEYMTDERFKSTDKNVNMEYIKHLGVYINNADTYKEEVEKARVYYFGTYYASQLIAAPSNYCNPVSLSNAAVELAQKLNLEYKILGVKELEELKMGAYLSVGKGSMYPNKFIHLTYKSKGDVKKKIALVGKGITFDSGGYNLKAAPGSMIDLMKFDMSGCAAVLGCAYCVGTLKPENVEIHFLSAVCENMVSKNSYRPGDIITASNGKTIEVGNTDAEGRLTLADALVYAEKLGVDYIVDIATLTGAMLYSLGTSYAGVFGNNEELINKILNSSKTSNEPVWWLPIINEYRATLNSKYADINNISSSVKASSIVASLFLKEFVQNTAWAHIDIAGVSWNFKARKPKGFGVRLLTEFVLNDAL

Sequence of Tyrosine-protein phosphatase non-receptor type 5 (P54829 whole entry): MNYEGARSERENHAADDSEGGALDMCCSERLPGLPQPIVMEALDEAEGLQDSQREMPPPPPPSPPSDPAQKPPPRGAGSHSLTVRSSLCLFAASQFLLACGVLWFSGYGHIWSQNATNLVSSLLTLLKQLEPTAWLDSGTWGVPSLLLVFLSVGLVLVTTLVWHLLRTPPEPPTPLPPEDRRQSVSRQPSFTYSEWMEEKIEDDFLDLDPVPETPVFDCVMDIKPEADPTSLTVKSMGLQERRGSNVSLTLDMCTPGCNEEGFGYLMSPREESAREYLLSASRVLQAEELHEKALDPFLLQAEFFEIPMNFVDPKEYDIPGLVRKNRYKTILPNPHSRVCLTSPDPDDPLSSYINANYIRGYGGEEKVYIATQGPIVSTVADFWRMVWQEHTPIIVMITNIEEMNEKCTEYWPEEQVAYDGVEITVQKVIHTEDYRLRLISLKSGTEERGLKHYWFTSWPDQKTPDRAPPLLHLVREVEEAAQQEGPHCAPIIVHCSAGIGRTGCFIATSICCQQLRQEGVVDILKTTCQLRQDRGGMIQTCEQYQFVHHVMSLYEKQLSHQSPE

For `O=C(N/N=C/c1ccoc1)c1cc(O)cc(O)c1`, the IC50 [1] was 33.9 µM (inactive), the IC50 [2] was 7.09 µM (active) and the IC50 [3] was 1.55 µM (active). The IC50 (Albumin) was > 94 µM (inactive), the IC50 [4] was 0.952 µM (active) and the IC50 [5] was > 66.6 µM (inactive). For the same molecule, the IC50 [6] was 12.4 µM (active).
In the case of `CC(C)c1ccc(NC(=O)C[C@H]2CC[C@H]3[C@@H](COc4ccc(NC(=O)Nc5ccc(F)c(F)c5)cc4C(=O)N3C)O2)cc1`, the AC50 [7] is reported as 14.3 µM (active) and the AbsAC35 [8] is reported as 91.94 µM.
With `CCCCNC(=O)c1nc(C2CCNCC2)oc1-c1cccc(C(F)(F)F)c1` the AC50 (Caspase-7) was > 70 µM (inactive), the AC50 (Caspase-6) was 1.6 µM (active) and the IC50 [9] was 39.9 µM (inactive).
For `Cc1ccc2ccc(C(Nc3ccccc3)c3ccccc3)c(O)c2n1` (configuration not stated), the AC50 (A549) was 17.9 µM (active).
With `O=C(C[C@@H]1CC[C@H]2[C@@H](COC[C@H](O)CN2C(=O)Nc2cccc(F)c2)O1)NCc1ccccc1F` the AC50 [10] was > 52 µM (inactive).
`O=C(Nc1ccc(C(F)(F)F)cc1)Nc1ccc2c(c1)[C@@H]1C[C@H](CC(=O)N3CCc4ccccc4C3)O[C@@H](CO)[C@@H]1O2` gave an AbsAC35 [11] of 85.24 µM.
With `CC(C)(C)OC(=O)Nc1nc2ccc(C(=O)Nc3ccnc(Cl)c3)cc2s1` the CC50 [12] was > 300 µM (inactive).
In the case of `NC(=S)N/N=C/c1ccc(-c2cc(Cl)ccc2Cl)o1`, the AC50 (HeLa) is reported as 17.6 µM (active), the EC50 [13] is reported as 0.627 µM (active) and the AC50 (Cryptococcus neoformans [14]) is reported as 18.1 µM (active). The EC50 [15] was > 60 µM (not active), the EC50 [16] was 15.4 µM (active) and the EC50 [17] was 4.47 µM (active). The AC50 (Cryptococcus neoformans [18]) was 12.2 µM (active).
With `CCc1nnc(NS(=O)(=O)c2ccc(/N=C/c3c(C)nn(-c4ccc(C)c(C)c4)c3O)cc2)s1` the IC50 [19] was 16.5 µM (active), the IC50 [20] was 4.55 µM (active) and the IC50 (cells) was 70 µM (inactive). For the same molecule, the IC50 (Leucine aminopeptidase) was 14.4 µM (active).
